From patent US6231894A, “Treatments based on discovery that nitric oxide synthase is a paraquat diaphorase” (Duke University, priority 1999, dated 2001) come the findings set out here.

Data set [1] relates to RAW-264.7 monocyte macrophage cells. The experiment in a line: NO production, nitrite plus nitrate, in macrophages. The following applies: 0.1 mM paraquat, 24 hours. Format: cell-based. Here is the method:
(§1) The RAW-264.7 monocyte macrophage cells line (TIB-71) was purchased from the American Type Culture Collection (Manassas, Va.). The cells were grown in T-75 flasks containing DMEM (Gibco-BRL, Grand Island, N.Y.) supplemented with 1 mM pyruvate, 4.5 g/L glucose and […] fetal bovine serum Macrophages were plated at 2.0×10^4 cells/well in 24-well plates and experiments were performed when cells were near confluence. Macrophages were immunostimulated with 50 ng/ml lipopolysaccharide (LPS) from E. coli serotype 0111:B4 (Signia, St. Louis, Mo.) and 50 U/ml recombinant mouse interferon gamma (INF-γ, R&D Systems, Minneapolis,Minn.). Macrophages were used between passages 2-8. Cell cultures were kept in a 37° C. incubator with air and 5% carbon dioxide.
(§2) NOS2 was induced in RAW cells using a mixture of interferon-γ and lipopolysaccharide (LPS) referred to as "cytomix." Unstimulated (basal) and activated (cytomix) macrophages were treated with 0.1 mM paraquat or not treated with paraquat and cytotoxicity and NO production were assessed at 24 hours.
NO production, assessed by measuring the accumulation of the NO metabolites nitrite and nitrate 24 hours after cytomix treatment, is shown in FIG. 4(b). […] NOS2 expression was not affected (data not shown).
(§3) To further exclude the role of peroxynitrite, macrophages were treated with increasing concentrations of the NO-donor, DETA NONOate in the presence of 0.1 mM paraquat. Macrophage cytotoxicity and NO release were assessed 24 hours after treatments. Cell injury was assessed by measuring LDH release.

Data set [2] concerns restenosis. The experiment in a line: Working Example VIII: restenosis patient. Format: in vivo, human. The following applies: 10 mg locally instilled via balloon, repeat angioplasty. Here is the method:
A person undergoes angioplasty of the left anterior descending coronary artery. Two weeks following procedure, they present with chest pain and the radiographic evidence of restenosis. They undergo repeat angioplasty with infusion of paraquat (dosage of 10 mg), locally instilled under pressure via the balloon.

The subject of data set [3] is nitrotyrosine. The experiment in a line: Nitrotyrosine staining in macrophages. Format: cell-based. The following applies: combination of paraquat and cytomix. Here is the method: Western blot analysis was carried out as follows. Cells were lysed in ice-cold 50 mM Tris buffer (pH 7.4) containing 1% sodium dodecyl sulfate and protease inhibitor cocktail (Boehringer Mannheim). Protein (10 μg) was separated on a 4-20% gradient SDS-PAGE at 250 V for 30 minutes and transferred onto a nitrocellulase membrane at 30 V for 12 hours. Proteins were detected using polyclonal antibodies against human NOS3 (TransductionLaboratories; 1/1000) and nitrated keyhole limpet hemocyanin, nitrotyrosine (Upstate Biology; 1/5000). Primary antibodies were detected with a goat anti-rabbit-HRP antibody (Jackson; 1/15,000) and developed using an ECL kit (Amersham).
The RAW-264.7 monocyte macrophage cells line (TIB-71) was purchased from the American Type Culture Collection (Manassas, Va.). The cells were grown in T-75 flasks containing DMEM (Gibco-BRL, Grand Island, N.Y.) supplemented with 1 mM pyruvate, 4.5 g/L glucose and […] fetal bovine serum Macrophages were plated at 2.0×10^4 cells/well in 24-well plates and experiments were performed when cells were near confluence. […]
as §2

Data set [4] concerns the target T1, Recombinant rat neuronal nitric oxide synthase (NOS1) (Rattus norvegicus, UniProt P29476).
T1 construct: purchased Oxis, Portland, Oreg
The experiment in a line: NADPH oxidation (paraquat diaphorase activity) by recombinant rat neuronal nitric oxide synthase. Format: biochemical. Here is the method: Recombinant rat neuronal nitric oxide synthase (NOS1, Oxis, Portland, Oreg.), a constitutive enzyme, was used to assay NADPH oxidation in the presence of increasing concentrations of paraquat. Reactions (0.2 ml) were performed in bis-tris propane buffer (40 mM) containing L-arginine (1 mM), CaCl2 (1.2 mM), EDTA (0.9 mM), NADPH (0.35 mM), dithiothreitol (3 mM), tetrahydrobiopterin (4 μM), catalase (1 μg/ml) and calmodulin (200 U/ml) at pH 7.4. Reactions were initiated by the addition of 1.5 U of NOS1, and the oxidation of NADPH was continuously monitored at 340 nm for 1 minute at 37° C. in a plate reader. The rate of NOS-mediated NADPH oxidation was determined using an extinction coefficient of 6.22 mM^-1 cm^-1 after subtracting the baseline of NADPH oxidation.
The experiment of Background Example 1 for NADPH oxidation was carried out in the presence and absence of 25 μM paraquat, without any NOS inhibitor (control), in the presence of L-NAME (1 mM) or in the presence of 1 mM L-NMMA. […] Only L-NAME shut down the NADPH oxidase activity.

Data set [5] has as its system NOS2. The experiment in a line: NOS2 expression in macrophages. Format: cell-based. The note with it: 0.1 mM paraquat, cytomix; data not shown. Here is the method: as §1, §2
Data set [6] has as its system RAW-264.7 monocyte macrophage cells. The experiment in a line: LDH release from macrophages (cytotoxicity). Format: cell-based. Here is the method:
as §1, §2
Cell injury was assessed by measuring LDH release.
as §3

Data set [7] is described as follows: Working Example XIII: accident victim with hypotension. Format: in vivo, human. The following applies: IV 0.4 milligrams per kilogram over 2 hours. Here is the method:
A accident victim presents with a blood pressure of 80/60 and a hematocrit of 20. They are bleeding profusely from an abdominal would and doctors are having difficulty maintaining their blood pressure with fluid resuscitation. They are begun on an intravenous drip of paraquat of 0.4 milligrams per kilogram over 2 hours.

In data set [8] the test system is Rabbit aortic rings. The experiment in a line: Acetylcholine-induced (EDRF) relaxation of aortic rings. Here is the method:
Rabbit aortic rings were treated with increasing concentrations of paraquat or L-NAME (2 mM) prior to initiating a constriction response with 1 μM phenylephrine (initial contraction).
New Zealand white male rabbits weighting 3-4 kg were anaesthetized with phenobarbital (30 mg/kg/iv). The descending thoracic aorta was isolated and placed in Krebs-Henseleit buffer (pH 7.4) and stored at 4° C. until used. The vessels were cut into 5 mm rings and submerged in 25 ml double jacketed tissue baths containing Krebs-Henseleit buffer bubbled with 95% oxygen and 5% carbon dioxide at 37° C. Rings were hung on stainless steel stirrups connected to calibrated force transducers. Rings were equilibrated with 2 g resting tension for 1 hour before use and contracted with phenylephrine (1 μM). Rings were incubated with paraquat for 15 minutes before acetylcholine-induced or exogenous relaxations were performed.
Endothelial-derived relaxing factor (EDRF) responses were initiated by addition of acetylcholine.

Data set [9] has as its system rat NOS1. The experiment in a line: Anaerobic reduction of paraquat by NOS1 at 600 nm; Hanes plot. Format: biochemical. Here is the method: Anaerobic reduction of paraquat by NOS1 to paraquat.^+ was followed at 600 nm spectrophotometrically and converted to a concentration using the extinction coefficient E600 =13,700 M^-1 cm^-1. Reactions (1 ml) were performed in the NADPH oxidation buffer described above in the absence of L-arginine, dithiothreitol and tetrahydrobiopterin. Reactions were initiated by the addition of 2 U of NOS1 and followed for 3 minutes at 37° C.

T1 sequence (P29476 whole entry): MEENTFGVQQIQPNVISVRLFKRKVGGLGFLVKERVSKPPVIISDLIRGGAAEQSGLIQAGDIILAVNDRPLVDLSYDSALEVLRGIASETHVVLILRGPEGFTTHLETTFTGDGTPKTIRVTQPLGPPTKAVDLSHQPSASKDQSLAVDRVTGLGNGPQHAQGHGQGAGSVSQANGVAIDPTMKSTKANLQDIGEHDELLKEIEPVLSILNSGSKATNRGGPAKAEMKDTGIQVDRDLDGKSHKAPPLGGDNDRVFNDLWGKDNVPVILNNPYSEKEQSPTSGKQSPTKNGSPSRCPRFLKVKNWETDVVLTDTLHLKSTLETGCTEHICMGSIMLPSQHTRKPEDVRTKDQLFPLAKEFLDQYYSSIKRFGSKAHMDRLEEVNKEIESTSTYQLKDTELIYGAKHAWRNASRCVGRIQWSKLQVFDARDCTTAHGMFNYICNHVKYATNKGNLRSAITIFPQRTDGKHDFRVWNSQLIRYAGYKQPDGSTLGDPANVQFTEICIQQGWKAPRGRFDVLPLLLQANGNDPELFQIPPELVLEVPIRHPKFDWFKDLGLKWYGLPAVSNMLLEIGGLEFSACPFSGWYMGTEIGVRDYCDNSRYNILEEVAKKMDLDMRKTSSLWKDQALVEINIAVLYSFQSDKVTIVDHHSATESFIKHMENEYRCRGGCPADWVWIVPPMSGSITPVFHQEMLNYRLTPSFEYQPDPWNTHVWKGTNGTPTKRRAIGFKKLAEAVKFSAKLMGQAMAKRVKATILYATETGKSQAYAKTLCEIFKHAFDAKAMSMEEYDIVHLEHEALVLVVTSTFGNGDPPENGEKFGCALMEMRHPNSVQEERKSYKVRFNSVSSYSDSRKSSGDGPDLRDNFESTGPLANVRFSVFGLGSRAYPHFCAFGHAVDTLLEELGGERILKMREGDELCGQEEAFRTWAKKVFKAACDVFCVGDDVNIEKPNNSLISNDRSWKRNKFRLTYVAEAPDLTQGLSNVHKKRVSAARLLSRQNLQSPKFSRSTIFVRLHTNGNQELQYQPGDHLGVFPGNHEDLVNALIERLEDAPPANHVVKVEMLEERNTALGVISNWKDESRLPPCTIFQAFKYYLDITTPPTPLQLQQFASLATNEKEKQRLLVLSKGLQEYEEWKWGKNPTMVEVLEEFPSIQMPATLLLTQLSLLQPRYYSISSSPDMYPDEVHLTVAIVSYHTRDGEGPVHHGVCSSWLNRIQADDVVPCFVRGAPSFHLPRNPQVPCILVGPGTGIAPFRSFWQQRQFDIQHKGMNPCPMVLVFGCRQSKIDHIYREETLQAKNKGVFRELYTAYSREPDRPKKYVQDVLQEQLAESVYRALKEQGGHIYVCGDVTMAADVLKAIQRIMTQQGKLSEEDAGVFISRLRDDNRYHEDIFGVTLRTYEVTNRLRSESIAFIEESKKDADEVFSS

With `C[n+]1ccc(-c2cc[n+](C)cc2)cc1` [paraquat], in data set [1] (FIG. 4(d)), the “formation of NO metabolites from DETA NONOate” value is reported as “does not alter the formation of NO metabolites from DETA NONOate”. For the same molecule, in data set [1] (cytomix-activated), the “percent decrease in nitrite and nitrate compared with percent increase in cell death” value is “percent decrease in nitrite and nitrate was greater than percent increase in cell death”. Also, the “NO production (nitrite and nitrate)” value in data set [1] (cytomix-activated, FIG. 4(b)) is “significantly attenuated NO production”. Also, in data set [2], the restenosis or angina result is “without further episode of restenosis or angina”. Besides, the nitrotyrosine staining entry in data set [3] is given as “A decrease in nitrotyrosine staining”. In addition, in data set [4] (25 μM paraquat without NOS inhibitor, FIG. 2(a)), the “increase in NADPH oxidation over the basal rate” value is “about three-fold”. Further, the “NOS diaphorase / superoxide formation” value in [4] (conclusion of Background Example 1) is “is an NOS diaphorase and causes superoxide formation”. For the same molecule, the “paraquat diaphorase activity of NOS1” value in data set [4] (in the presence of 1 mM L-arginine) is “NOS1 was found to exhibit paraquat diaphorase activity”. Also, the NADPH oxidation entry in data set [4] (increasing paraquat concentrations, 1 mM L-arginine, pH 7.4, 37° C., FIG. 1(a)) is recorded as “concentration-dependent increase in NADPH oxidation”. Also, the NOS2 expression entry in data set [5] is reported as “not affected”. Moreover, the “cell injury (LDH release), single treatment” value in data set [6] (0.1 mM paraquat or cytomix alone, 24 hours, FIG. 4(a)) is on record as “very little cell injury”. Moreover, in data set [6] (0.1 mM paraquat plus cytomix, 24 hours, FIG. 4(a)), the “paraquat-induced cytotoxicity in activated macrophages” value is given as “potentiated in cytokine-activated macrophages”. Besides, the “effect of paraquat on DETA NONOate-induced cell injury” value in data set [6] (0.1 mM paraquat, higher DETA NONOate concentrations, 24 hours, FIG. 4(c)) is reported as “DETA NONOate-induced cell injury was attenuated by paraquat”. The “cell killing / amelioration of toxicity, conclusion” value in data set [6] (conclusion of Background Example 4) is “kills cells containing NOS but not cells that do not”. Moreover, in [7], the patient condition result is “the patient is stabilized”. Besides, in [7] (from 80/60), the blood pressure is 100/70. The “EDRF responses / vessel constriction, conclusion” value in data set [8] (conclusion of Background Example 3) was “blocks EDRF responses and thereby constricts blood vessels”. Also, the “inhibition of EDRF-induced relaxation, in words” value in data set [8] (increasing paraquat, 15 min before acetylcholine, phenylephrine 1 μM, FIG. 3(a)) was “dose-dependent inhibition of EDRF-induced relaxation”. For the same molecule, in data set [9] (FIG. 1(d)), the “paraquat reductase activity (Hanes plot)” value is recorded as “increased paraquat reduction with increasing paraquat concentration”. For the same molecule, in [9] (anaerobic, without L-arginine, 37° C., 3 minutes, FIG. 1(c)), the “reduction of paraquat to its cation radical (600 nm)” value was “direct and progressive reduction of paraquat to its cation radical”.
